# Laboratory results: US20170009093A1, “LIQUID COMPOSITION, PIGMENT DISPERSION LIQUID, AND INK JET RECORDING AQUEOUS INK COMPOSITION” (Seiko Epson Corporation, priority 2015, published 2017)
# Experiment: water-octanol partition coefficient (log P), OECD Test Guideline 107
# Type: physicochemical
# Conditions: not given
# Method: The water-octanol partition coefficient, or log P value, is a value defined by OECD Test Guideline 107. […] The constituents shown in Table 1 were as below, and the log P values in Table 1 were determined in accordance with OECD Test Guideline 107. • (1) First solvents
row,Compound,log P (water-octanol partition coefficient)
1,CCCCOCCOCCO [butyl diglycol],0.56

# Same assay, conditions: OECD Test Guideline 107
Compound,logP,log P (water-octanol partition coefficient)
"CCC(O)CO (stereo not shown) [1,2-butanediol]",-0.34,–
"COCCOCCOCCOCCO [Methyl tetraglycol, reference compound]",–,−1.87
dipropylene glycol monomethyl ether,–,−0.46

# Same assay, conditions: octanol/water; OECD Test Guideline 107
row,Compound,logP
1,"CCCCCC(O)CO (stereo not shown) [1,2-heptanediol]",1
2,"Cc1cccc(OCC(O)CO)c1 (stereo not shown) [3-(3-methylphenoxy)-1,2-propanediol]",1.21
3,"COc1ccc(COCC(O)CO)cc1 (stereo not shown) [3-(4-methoxybenzyloxy)-1,2-propanediol]",0.8
4,OCC(O)COc1ccccc1 (stereo not shown) [phenyl glyceryl ether],0.75

# Second part, the compound after the results:
row,logP,Compound
1,0.7,"CCCCC(O)CO (stereo not shown) [1,2-hexanediol]"
2,1.69,"OCC(CO)(CO)COc1ccccc1 [2-hydroxymethyl-2-phenoxymethyl-1,3-propanediol]"
3,1.1,"CC(O)(CO)COc1ccccc1 (stereo not shown) [2-methyl-3-phenoxy-1,2-propanediol]"
4,-0.11,"CC(C)(C)C(O)CO (stereo not shown) [3,3-dimethylbutane-1,2-diol]"
5,0.88,"OCC(O)COCc1ccccc1 (stereo not shown) [3-benzyloxy-1,2-propanediol]"
